Assay results: patent US8202910B2 (Sequella, Inc., priority 2006, dated 2012)
In brackets after ≈: the same amount, converted by molar mass. Entries after “also recorded” stand apart in the source; their conditions may differ. Where two headings read alike, the source gives them in different places.

Tests used:
[1] = system: monkey kidney cells (Vero); assay: In vitro toxicity, Vero cells; assay type: cell-based; conditions: Primates
Method: Twenty six compounds (including 37, 59 and 109) were tested in an in vitro model of toxicity using monkey kidney cells (Vero) and human cervical cancer cells (HeLa) using methods well known to those skilled in the art. The data from this toxicity testing and the MIC data were used to calculate a selectivity index (SI), the ratio of IC50:MIC (Table 15). Selectivity Indexes were ranging from 1.76 to 16.67.

[2] = PK, tissue distribution, excretion and metabolism of compound 109 in mice; assay type: in vivo; set-up: Amount cumulatively excreted, Feces / Amount cumulatively excreted, Urine: unit not given here; conditions: for half-life: read-out: T1/2 el (converted)
Method: Initially, analytical methods for determination of the compounds had been developed that allowed to carry out all the PK experiments, sec FIG. 29. Here is a brief description of the experiment: (1) plasma spiked with tested compounds and 10 uL of Terfenadine or plasma samples (200 uL) added; (2) ACN (2 mL) added to precipitate protein and spin at 2,500 rpm; (3) evaporate supernatant to dryness; (4) add 200 uL of the diluting solvent: methanol (with 0.1% of trifluoroacetic acid): ammonium acetate (80/20); (5) vortex, spin, and use supernatant; (6) run LC/MS/MS on Sciex API 3000.
Conjugated metabolites are products of the typical metabolic pathway N-glucoronidation formed by reaction with glucuronic acid (D. A. Williams and T. L. Lemke in Foye's Principals of Medicinal Chemistry, 5th Ed., p.202).

[3] = target: T1, Norepinephrine NE transporter (Homo sapiens, UniProt P23975); assay: CEREP transporter binding, NE; conditions: tested at 10 μM; read-out: inhibition of control specific binding
T1 construct: CEREP (contract testing)
Description: (§1) In vitro testing for safety pharmacology and early ADMET (Absorption, Distribution, Metabolism, Excretion, Toxicity) studies of compound 109 were contracted out to CEREP (15318 NE 95th Street, Redmond, Wash., 98052, USA www.cerep.com) under a service agreement and included evaluation of inhibitory binding to a panel of 27 standard receptors and three transporters (See FIG. 60 (Table 31) and FIG. 61 (Table 32)) which included: adenosine receptors (A1 and A2A), adrenergic receptors (alpha 1, alpha 2, beta 1), angiotensin II receptor (AT1), benzodiazapene receptor (BZD), bradykinin receptor (B2), cholecystokinin receptor (CCK1), dopamine receptors (D1, D2S), endothelin receptor (ETA), GABA receptor (GABA), glutamate receptor (NMDA), histamine receptor (H1 central), melanocortin receptor (MC4), muscarinic receptor (M, non-selective), neurokinin receptor (NK1), neuropeptide Y receptor (Y), nicotinic receptor (neuronal, alpha-BGTX-insensitive), opiate receptor (non-selective opiate), orphanin receptor (ORL1), phencyclidine receptor (PCP), serotonin receptor (5-HT), sigma receptor (sigma non-selective), steroid receptor (glucocorticoid receptor, GR), and NE, DA, and 5-HT transporters.
(§2) The specific ligand binding to the receptors is defined as the difference between the total binding and the nonspecific binding determined in the presence of an excess of unlabelled ligand.

Dopamine DA transporter = target: T2, Dopamine DA transporter (Homo sapiens, UniProt Q01959); assay: CEREP transporter binding, DA; conditions: tested at 10 μM; read-out: inhibition of control specific binding
T2 construct: CEREP (contract testing)
Description: as §1, §2

[4] = target: T3, Serotonin 5-HT transporter (Homo sapiens, UniProt P31645); assay: CEREP transporter binding, 5-HT; conditions: tested at 10 μM; read-out: inhibition of control specific binding
T3 construct: CEREP (contract testing)
Description: as §1, §2

Candida albicans = assay: Spectrum of activity MIC, broth microdilution NCCLS M27-A2 (yeast); assay type: cell-based
Method: (§3) Compound 109 was tested against a representative panel of commonly encountered clinical microorganisms comprising opportunistic pathogens, target pathogens and normal human flora. The spectrum of activity of compound 109 was evaluated by performing recommended broth microdilution methods. NCCLS M27-A2, 2003 for yeast and NCCLS M38-A, 2003 for mold.

Aspergillus fumigatus = assay: Spectrum of activity MIC, broth microdilution NCCLS M38-A (mold); assay type: cell-based; conditions: three isolates
Method: as §3

M. bovis = assay: microbe, parasite or virus in culture; assay type: cell-based; conditions: Mycobacterium tuberculosis variant bovis
M. marinum = assay: Spectrum of activity MIC, MOTT, agar proportion method; assay type: cell-based; conditions: Mycobacterium marinum; three strains
M. kansasii = assay: as above; assay type: cell-based; conditions: Mycobacterium kansasii; three tested
[5] = system: M. chelonae group (M. chelonae and M. abscessus); assay: Spectrum of activity MIC, rapid-grower, broth microdilution (NCCLS M24-A); assay type: cell-based; conditions: Mycobacteroides chelonae; three strains tested
[6] = system: RIF^R M. tuberculosis isolate 3185; assay: microbe, parasite or virus in culture; assay type: cell-based
[7] = system: RIF^R M. tuberculosis strain 3185; assay type: cell-based
[8] = system: M. tuberculosis H37Rv (Pasteur); assay: Rapid in vivo model of TB, body weight of infected mice; set-up: species or system C3H female mice
M. avium = assay: Spectrum (unpublished data); assay type: cell-based

T1 sequence (P23975 whole entry): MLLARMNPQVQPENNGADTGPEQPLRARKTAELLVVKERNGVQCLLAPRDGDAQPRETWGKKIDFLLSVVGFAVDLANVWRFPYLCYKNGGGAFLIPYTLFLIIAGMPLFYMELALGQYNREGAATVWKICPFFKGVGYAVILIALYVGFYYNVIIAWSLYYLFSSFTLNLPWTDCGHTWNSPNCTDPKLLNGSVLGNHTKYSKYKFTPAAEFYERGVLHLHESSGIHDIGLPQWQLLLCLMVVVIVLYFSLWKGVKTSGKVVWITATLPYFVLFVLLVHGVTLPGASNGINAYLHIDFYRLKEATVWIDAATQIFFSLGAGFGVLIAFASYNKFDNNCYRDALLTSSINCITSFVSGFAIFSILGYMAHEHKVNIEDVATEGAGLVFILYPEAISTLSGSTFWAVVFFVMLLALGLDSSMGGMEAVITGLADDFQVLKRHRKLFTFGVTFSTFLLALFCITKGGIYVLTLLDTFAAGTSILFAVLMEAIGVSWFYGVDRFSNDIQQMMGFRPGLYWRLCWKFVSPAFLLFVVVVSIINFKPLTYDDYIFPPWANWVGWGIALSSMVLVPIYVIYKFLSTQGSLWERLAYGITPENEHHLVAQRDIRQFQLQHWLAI
T2 sequence (Q01959 whole entry): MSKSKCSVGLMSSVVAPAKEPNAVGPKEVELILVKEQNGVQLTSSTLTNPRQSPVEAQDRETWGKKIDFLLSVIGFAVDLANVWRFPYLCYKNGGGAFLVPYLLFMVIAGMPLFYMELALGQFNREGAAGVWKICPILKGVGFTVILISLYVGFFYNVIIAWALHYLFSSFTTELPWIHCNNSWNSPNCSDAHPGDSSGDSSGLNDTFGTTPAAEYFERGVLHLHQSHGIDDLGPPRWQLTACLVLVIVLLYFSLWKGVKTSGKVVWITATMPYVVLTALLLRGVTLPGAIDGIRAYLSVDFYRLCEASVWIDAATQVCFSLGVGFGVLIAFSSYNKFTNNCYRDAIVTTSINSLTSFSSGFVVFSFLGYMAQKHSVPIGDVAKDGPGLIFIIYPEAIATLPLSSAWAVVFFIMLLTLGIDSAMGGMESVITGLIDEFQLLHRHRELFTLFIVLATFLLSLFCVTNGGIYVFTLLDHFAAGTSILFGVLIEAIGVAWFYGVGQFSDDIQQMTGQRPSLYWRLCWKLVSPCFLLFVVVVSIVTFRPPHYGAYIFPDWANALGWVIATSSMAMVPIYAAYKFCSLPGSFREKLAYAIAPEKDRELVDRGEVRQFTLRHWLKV
T3 sequence (P31645 whole entry): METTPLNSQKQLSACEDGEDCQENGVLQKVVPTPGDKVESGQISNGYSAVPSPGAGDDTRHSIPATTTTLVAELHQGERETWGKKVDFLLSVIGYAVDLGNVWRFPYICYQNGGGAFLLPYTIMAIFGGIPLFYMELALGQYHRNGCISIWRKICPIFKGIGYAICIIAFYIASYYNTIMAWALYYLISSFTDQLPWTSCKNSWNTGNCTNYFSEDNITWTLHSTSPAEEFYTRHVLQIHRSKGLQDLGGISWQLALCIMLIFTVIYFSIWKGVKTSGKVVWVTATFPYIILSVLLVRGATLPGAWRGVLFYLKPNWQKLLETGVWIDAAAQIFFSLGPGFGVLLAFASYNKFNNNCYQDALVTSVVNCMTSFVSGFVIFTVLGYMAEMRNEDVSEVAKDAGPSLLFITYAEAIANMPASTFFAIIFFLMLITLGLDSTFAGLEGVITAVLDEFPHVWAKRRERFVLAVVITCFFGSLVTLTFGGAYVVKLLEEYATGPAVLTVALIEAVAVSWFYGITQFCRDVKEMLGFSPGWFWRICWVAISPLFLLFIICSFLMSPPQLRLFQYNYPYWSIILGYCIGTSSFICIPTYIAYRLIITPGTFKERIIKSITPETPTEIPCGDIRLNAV

CC(C)=CCC/C(C)=C/CNCCNC1C2CC3CC(C2)CC1C3 (centres unmarked) [Compound 109, N-Geranyl-N′-(2-adamanthyl)ethane-1,2-diamine]
IC50 [1]: 26 µM | Amount cumulatively excreted, Feces ([2]; 3 mg/kg i.v., 0-4 h): <0.01 | Amount cumulatively excreted, Urine ([2]; 3 mg/kg i.v., 0-4 h, unit not given): <0.01 | Amount cumulatively excreted, Feces ([2]; 3 mg/kg i.v., 4-8 h): 0.01 | Amount cumulatively excreted, Urine ([2]; 3 mg/kg i.v., 4-8 h): <0.01 | Amount cumulatively excreted, Feces ([2]; 3 mg/kg i.v., 8-24 h): 0.04 | Amount cumulatively excreted, Urine ([2]; 3 mg/kg i.v., 8-24 h): 0.03 | Amount cumulatively excreted, Feces ([2]; 3 mg/kg i.v., 24-32 h): <0.01 | Amount cumulatively excreted, Urine ([2]; 3 mg/kg i.v., 24-32 h): 0.01 | Amount cumulatively excreted, Feces ([2]; 3 mg/kg i.v., Total 0-32 h): 0.06 | Amount cumulatively excreted, Urine ([2]; 3 mg/kg i.v., Total 0-32 h): 0.04 | Amount cumulatively excreted, Feces ([2]; 25 mg/kg p.o., 0-4 h): 0.48 | Amount cumulatively excreted, Feces ([2]; 25 mg/kg p.o., 4-8 h): 0.31 | Amount cumulatively excreted, Feces ([2]; 25 mg/kg p.o., 8-24 h): 1.12 | Amount cumulatively excreted, Feces ([2]; 25 mg/kg p.o., 24-32 h): 0.08 | Amount cumulatively excreted, Feces ([2]; 25 mg/kg p.o., Total 0-32 h): 2.0 | tissue distribution ([2]; i.v. 3 mg/kg, p.o. 25 mg/kg): primarily distributes into the lungs and spleen | plasma level relative to MBC ([2]; iv or p.o.): reaches and exceeds its Minimum Bactericidal Concentration | metabolites (breakdown products) in urine ([2]; mouse urine): did not provide evidence of breakdown products | conjugated (N-glucoronidation) metabolites in urine ([2]; mouse urine, first 24 hr): No glucoronidation metabolites; also recorded: no evidence for the formation of conjugated metabolites | total amount after excretion (urine and feces) ([2]; mouse, in vivo): ≤ 3 % of the delivered dose | total clearance ([2]; mouse, in vivo): less than hepatic blood flow | AUC ([2]; mouse, in vivo, iv, 3 mg/kg): 792 ng·h/mL | Cmax ([2]; mouse, in vivo, iv, 3 mg/kg): 1040 ng/mL | Tmax ([2]; mouse, in vivo, iv, 3 mg/kg): 0 h | clearance ([2]; mouse, in vivo, iv, 3 mg/kg): 63.1 mL/min/kg | half-life ([2]; mouse, in vivo, iv, 3 mg/kg): 3.5 h | Vd ([2]; mouse, in vivo, iv, 3 mg/kg, read-out: Vdss): 11.8 L/kg | AUC ([2]; mouse, in vivo, po, 25 mg/kg): 254 ng·h/mL | Cmax ([2]; mouse, in vivo, po, 25 mg/kg): 135 ng/mL | Tmax ([2]; mouse, in vivo, po, 25 mg/kg): 0.31 h | bioavailability ([2]; mouse, in vivo, po, 25 mg/kg): 3.8% | half-life ([2]; mouse, in vivo, po, 25 mg/kg): 5.2 h | inhibition at 10 µM [3]: 87% | inhibition at 10 µM (Dopamine DA transporter): 63% | inhibition at 10 µM [4]: 95% | MIC (Candida albicans): 4 to 8 µg/mL (≈ 12.1 to 24.2 µM) | MIC (Aspergillus fumigatus): 16 µg/mL (≈ 48.4 µM) | MIC (M. bovis): 0.25 µg/mL (≈ 0.756 µM) | MIC (M. marinum): 8 µg/mL (≈ 24.2 µM) | MIC (M. kansasii): 16 µg/mL (≈ 48.4 µM) | MIC [5]: 16 µg/mL (≈ 48.4 µM) | MIC ([6]; Mycobacterium tuberculosis, read-out: MIC (BACTEC)): 0.32 µg/mL (≈ 0.968 µM) | MIC (BACTEC) ([6]; isolate 3185): 0.32 µg/mL (≈ 0.968 µM) | growth inhibition [7]: greater than 99% | x/y quotient ([7]; 0.5 MIC SQ109 + rifampicin 4 mg/L): 0.64 | x/y quotient ([7]; 0.5 MIC SQ109 + rifampicin 8 mg/L): 0.48 | x/y quotient ([7]; 0.5 MIC SQ109 + rifampicin 12 mg/L): 0.40 | x/y quotient ([7]; 0.5 MIC SQ109 + rifampicin 16 mg/L): 0.35 | average body weight ([8]; SQ109 10 mg/kg + RIF 2 mg/kg orally, 6 mice, by the 3 wk, uninfected control 24.5 g, untreated 17 g): 24.3 grams | body weight of infected mice ([8]; SQ109 in combination with PZA (50 mg/kg)): slight improvement | body weight of infected mice ([8]; compound 109 (10 mg/kg) in combination with Rifampicin (2 mg/kg)): comparable to non-infected controls | body weight of infected mice ([8]; compound 109 (10 mg/kg) in combination with Rifampicin (2 mg/kg), listed as SQ109): fully prevented body weight loss | body weight of infected mice ([8]; compound 109 in combination with EMB (10 mg/kg)): closer to placebo treated controls | body weight of infected mice ([8]; compound 109 in combination with EMB (10 mg/kg), listed as SQ109): No effect | body weight of infected mice ([8]; compound 109 in combination with INH (1 mg/kg)): comparable to non-infected controls | body weight of infected mice ([8]; compound 109 in combination with INH (1 mg/kg), listed as SQ109): enhanced activity | body weight of infected mice ([8]; compound 109 in combination with Moxi (10 mg/kg)): closer to placebo treated controls | body weight of infected mice ([8]; compound 109 in combination with Moxi (10 mg/kg), listed as SQ109): antagonistic effect | average weight ([8]; single drug alone (SQ109 10 mg/kg; RIF 2 mg/kg), by the 3 wk): 21.3 g | body weight of infected mice ([8]; single drug alone (SQ109 10 mg/kg; Rifampin 2 mg/kg)): closer to placebo treated controls | activity (M. avium): much less active
